Results reported in article PMC7827406, “Structure–Activity Relationship (SAR) Study of Spautin-1 to Entail the Discovery of Novel NEK4 Inhibitors” (International Journal of Molecular Sciences, 2021).
Where two headings read alike, the source gives them in different places.

Legend:
Experiment in all cases: biochemical
Parameters in all cases: Eurofins KinaseProfiler full panel at Km ATP, residual kinase activity (%) relative to DMSO
cKit(V654A)(h) = target: T1, cKit(V654A)(h) (Homo sapiens, UniProt P10721, V654A)
T1 construct: gene KIT
T1 sequence (P10721 whole entry V654A): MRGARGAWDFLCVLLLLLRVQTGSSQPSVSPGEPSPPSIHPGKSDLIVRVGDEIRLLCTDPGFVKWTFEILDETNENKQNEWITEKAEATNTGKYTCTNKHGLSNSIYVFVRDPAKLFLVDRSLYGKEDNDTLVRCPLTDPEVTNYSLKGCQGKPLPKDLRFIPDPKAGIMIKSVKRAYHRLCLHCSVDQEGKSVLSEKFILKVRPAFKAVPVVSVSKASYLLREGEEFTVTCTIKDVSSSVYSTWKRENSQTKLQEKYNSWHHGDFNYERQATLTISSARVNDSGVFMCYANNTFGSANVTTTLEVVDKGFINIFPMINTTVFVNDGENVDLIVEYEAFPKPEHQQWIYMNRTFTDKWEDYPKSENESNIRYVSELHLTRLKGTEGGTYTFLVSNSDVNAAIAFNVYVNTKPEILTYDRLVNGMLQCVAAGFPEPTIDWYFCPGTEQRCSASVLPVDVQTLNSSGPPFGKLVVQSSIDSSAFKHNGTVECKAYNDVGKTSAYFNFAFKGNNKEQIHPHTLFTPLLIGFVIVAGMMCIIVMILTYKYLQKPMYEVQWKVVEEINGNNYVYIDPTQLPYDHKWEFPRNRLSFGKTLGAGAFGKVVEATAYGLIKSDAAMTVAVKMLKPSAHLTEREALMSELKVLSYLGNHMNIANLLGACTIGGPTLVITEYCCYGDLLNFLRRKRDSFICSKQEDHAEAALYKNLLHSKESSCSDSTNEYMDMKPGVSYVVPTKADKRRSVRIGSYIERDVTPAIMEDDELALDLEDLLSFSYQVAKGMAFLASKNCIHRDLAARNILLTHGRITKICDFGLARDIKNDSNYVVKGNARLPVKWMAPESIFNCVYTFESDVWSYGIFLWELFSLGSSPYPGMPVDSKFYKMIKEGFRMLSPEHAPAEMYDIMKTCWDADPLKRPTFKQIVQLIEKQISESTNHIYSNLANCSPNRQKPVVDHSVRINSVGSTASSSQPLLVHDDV
Method in brief: (§1)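 Compounds screened at 10 µM in radiometric kinase activity assays at Km ATP, reported as remaining kinase activity (%). A KINOMEscan competition-binding screen at 10 µM measured DNA-tagged kinase retained on immobilized active-site ligand by qPCR.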

CHK1(h) = target: T2, CHK1(h) (Homo sapiens, UniProt O14757)
T2 construct: gene CHEK1
T2 sequence (O14757 1-476): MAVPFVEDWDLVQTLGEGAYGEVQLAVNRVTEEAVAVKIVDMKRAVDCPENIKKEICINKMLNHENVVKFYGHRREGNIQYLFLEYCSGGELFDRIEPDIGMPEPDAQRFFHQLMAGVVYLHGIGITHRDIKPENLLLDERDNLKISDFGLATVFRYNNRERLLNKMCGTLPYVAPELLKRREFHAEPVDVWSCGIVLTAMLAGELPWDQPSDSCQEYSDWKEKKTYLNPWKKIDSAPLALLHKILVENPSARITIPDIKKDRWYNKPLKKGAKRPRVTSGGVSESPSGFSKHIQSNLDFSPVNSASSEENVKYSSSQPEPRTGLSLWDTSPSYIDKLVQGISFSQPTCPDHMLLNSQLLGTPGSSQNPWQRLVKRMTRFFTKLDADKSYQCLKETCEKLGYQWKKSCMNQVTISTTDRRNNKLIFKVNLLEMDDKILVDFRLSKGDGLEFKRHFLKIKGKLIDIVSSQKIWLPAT
Method in brief: as §1

MKK4(m) = target: T3, MKK4(m) (Mus musculus, UniProt P47809)
T3 construct: gene Map2k4
T3 sequence (P47809 1-397): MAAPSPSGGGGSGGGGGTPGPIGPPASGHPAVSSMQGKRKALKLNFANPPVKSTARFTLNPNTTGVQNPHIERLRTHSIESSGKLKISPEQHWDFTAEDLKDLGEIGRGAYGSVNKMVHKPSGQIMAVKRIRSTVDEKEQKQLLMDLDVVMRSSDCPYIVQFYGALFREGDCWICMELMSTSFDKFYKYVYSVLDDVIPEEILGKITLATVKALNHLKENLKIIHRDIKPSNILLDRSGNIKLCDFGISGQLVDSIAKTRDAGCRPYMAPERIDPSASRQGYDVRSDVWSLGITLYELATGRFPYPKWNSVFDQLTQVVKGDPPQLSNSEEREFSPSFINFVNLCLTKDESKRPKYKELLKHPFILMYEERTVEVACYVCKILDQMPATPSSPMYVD
Method in brief: as §1

PrKX(h) = target: T4, PrKX(h) (Homo sapiens, UniProt P51817)
T4 sequence (P51817 1-358): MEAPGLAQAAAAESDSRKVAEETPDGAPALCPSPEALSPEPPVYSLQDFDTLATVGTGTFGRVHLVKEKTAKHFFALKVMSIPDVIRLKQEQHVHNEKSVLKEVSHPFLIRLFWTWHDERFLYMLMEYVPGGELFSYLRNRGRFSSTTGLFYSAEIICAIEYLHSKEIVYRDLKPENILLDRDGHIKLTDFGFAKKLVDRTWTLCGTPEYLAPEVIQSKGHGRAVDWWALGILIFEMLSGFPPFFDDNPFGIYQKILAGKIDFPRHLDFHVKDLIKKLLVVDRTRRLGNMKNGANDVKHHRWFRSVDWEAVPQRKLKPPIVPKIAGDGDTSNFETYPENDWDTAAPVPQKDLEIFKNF
Method in brief: as §1

CaMKI(h) = target: T5, CaMKI(h) (Homo sapiens, UniProt Q14012)
T5 construct: gene CAMK1
T5 sequence (Q14012 whole entry): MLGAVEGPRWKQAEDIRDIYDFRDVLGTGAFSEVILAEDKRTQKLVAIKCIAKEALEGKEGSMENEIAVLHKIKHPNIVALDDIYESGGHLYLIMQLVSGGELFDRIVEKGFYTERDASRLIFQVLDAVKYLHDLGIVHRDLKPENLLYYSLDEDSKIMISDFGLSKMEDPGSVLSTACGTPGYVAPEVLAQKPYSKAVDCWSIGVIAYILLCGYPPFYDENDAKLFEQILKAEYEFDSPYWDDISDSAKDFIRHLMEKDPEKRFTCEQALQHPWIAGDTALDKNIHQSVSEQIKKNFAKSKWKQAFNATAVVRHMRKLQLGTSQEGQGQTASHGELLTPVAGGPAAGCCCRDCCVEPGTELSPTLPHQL
Method in brief: as §1

HIPK4(h) = target: T6, HIPK4(h) (Homo sapiens, UniProt Q8NE63)
T6 sequence (Q8NE63 1-616): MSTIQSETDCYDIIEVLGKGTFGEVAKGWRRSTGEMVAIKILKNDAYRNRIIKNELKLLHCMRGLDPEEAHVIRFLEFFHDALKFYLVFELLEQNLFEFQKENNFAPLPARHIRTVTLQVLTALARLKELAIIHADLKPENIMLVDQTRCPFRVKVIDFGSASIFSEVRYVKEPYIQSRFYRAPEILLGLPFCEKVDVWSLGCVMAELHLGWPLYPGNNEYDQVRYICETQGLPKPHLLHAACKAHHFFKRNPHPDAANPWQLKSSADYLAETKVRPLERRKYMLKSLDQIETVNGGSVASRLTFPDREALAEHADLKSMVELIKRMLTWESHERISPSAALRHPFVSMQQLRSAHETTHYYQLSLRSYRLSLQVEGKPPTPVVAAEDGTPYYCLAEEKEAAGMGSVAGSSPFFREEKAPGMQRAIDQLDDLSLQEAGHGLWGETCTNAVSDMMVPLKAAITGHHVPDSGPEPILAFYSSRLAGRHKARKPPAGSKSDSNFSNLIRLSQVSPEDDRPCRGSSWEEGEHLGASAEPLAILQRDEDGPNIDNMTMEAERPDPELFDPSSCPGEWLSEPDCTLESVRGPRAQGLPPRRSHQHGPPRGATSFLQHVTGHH
Method in brief: as §1

CDK3/cyclinE(h) = CDK3/cyclinE(h) (Homo sapiens, UniProt Q00526)
CDK3/cyclinE(h), sequence (Q00526 whole entry): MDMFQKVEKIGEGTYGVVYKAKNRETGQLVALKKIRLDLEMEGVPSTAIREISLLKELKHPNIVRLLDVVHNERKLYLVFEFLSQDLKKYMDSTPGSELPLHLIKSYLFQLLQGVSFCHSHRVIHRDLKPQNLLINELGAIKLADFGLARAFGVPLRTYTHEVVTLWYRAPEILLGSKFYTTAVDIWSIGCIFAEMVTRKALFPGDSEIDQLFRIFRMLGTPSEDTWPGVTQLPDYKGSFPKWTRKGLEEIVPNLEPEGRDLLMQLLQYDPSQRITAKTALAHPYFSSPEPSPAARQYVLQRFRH
CDK3/cyclinE(h), sequence (P24864 whole entry partner): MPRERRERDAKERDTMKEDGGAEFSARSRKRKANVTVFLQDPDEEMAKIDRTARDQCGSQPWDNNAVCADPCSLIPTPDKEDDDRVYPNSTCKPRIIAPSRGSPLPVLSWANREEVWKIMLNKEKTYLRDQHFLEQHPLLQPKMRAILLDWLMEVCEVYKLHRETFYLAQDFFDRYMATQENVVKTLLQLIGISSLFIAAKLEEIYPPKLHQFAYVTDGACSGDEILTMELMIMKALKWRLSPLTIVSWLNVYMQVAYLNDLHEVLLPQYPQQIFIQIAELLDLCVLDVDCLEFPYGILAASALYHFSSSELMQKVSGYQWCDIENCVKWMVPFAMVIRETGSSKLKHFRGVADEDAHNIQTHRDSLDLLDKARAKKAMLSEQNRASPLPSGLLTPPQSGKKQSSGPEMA
Method in brief: as §1

[1] = read-out: Residual activity (%) 5ay
[2] = read-out: Residual activity (%) Spautin-1 5aa
[3] = read-out: Residual activity (%) 5at
[4] = read-out: Residual activity (%) 5as

## COc1ccc2ncnc(Nc3cccc(F)c3)c2c1 [5ay, N-(3-Fluorophenyl)-6-Methoxy-4-Quinazolinamine]
cKit(V654A)(h); [1]
  remaining activity at 10 µM: 92%
CHK1(h); [1]
  remaining activity at 10 µM: 76%
MKK4(m); [1]
  remaining activity at 10 µM: 110%
PrKX(h); [1]
  remaining activity at 10 µM: 93%
CaMKI(h); [1]
  remaining activity at 10 µM: 93%
HIPK4(h); [1]
  remaining activity at 10 µM: 42%
CDK3/cyclinE(h); [1]
  remaining activity at 10 µM: 101%

## Fc1ccc(CNc2ncnc3ccc(F)cc23)cc1 [5aa, 6-Fluoro-N-(4-fluorobenzyl)-4-Quinazolinamine]
cKit(V654A)(h); [2]
  remaining activity at 10 µM: 112%
CHK1(h); [2]
  remaining activity at 10 µM: 80%
MKK4(m); [2]
  remaining activity at 10 µM: 105%
PrKX(h); [2]
  remaining activity at 10 µM: 97%
CaMKI(h); [2]
  remaining activity at 10 µM: 90%
HIPK4(h); [2]
  remaining activity at 10 µM: 103%
CDK3/cyclinE(h); [2]
  remaining activity at 10 µM: 93%

## Fc1ccc2ncnc(NCCc3ccc(Cl)cc3)c2c1 [5at, N-[2-(4-Chlorophenyl)Ethyl]-6-Fluoro-4-Quinazolinamine]
cKit(V654A)(h); [3]
  remaining activity at 10 µM: 85%
CHK1(h); [3]
  remaining activity at 10 µM: 73%
MKK4(m); [3]
  remaining activity at 10 µM: 118%
PrKX(h); [3]
  remaining activity at 10 µM: 112%
CaMKI(h); [3]
  remaining activity at 10 µM: 104%
HIPK4(h); [3]
  remaining activity at 10 µM: 93%
CDK3/cyclinE(h); [3]
  remaining activity at 10 µM: 107%

## Fc1ccc(CCNc2ncnc3ccc(F)cc23)cc1 [5as, 6-Fluoro-N-[2-(4-Fluorophenyl)Ethyl]-4-Quinazolinamine]
cKit(V654A)(h); [4]
  remaining activity at 10 µM: 85%
CHK1(h); [4]
  remaining activity at 10 µM: 69%
MKK4(m); [4]
  remaining activity at 10 µM: 112%
PrKX(h); [4]
  remaining activity at 10 µM: 97%
CaMKI(h); [4]
  remaining activity at 10 µM: 60%
HIPK4(h); [4]
  remaining activity at 10 µM: 92%
CDK3/cyclinE(h); [4]
  remaining activity at 10 µM: 105%
